Experimental data from patent US10202340B2, “Glucosylceramide synthase inhibitors and therapeutic methods using the same” (THE REGENTS OF THE UNIVERSITY OF MICHIGAN, priority 2015, dated 2019).
Where a name gives a salt, the structure may show the parent alone. Read-outs that look alike come from different tables or passages of the source.

Assays:
[1] = Mouse liver microsome stability; assay type: in vitro ADME; details: mouse liver microsomes; read-out: Mouse liver microsome t1/2
Experimental: Selected compounds were incubated with mouse liver microsomes to assess their stability to oxidative metabolism by cytochrome P450 enzymes (Table 1).

GCS in WT-MDCKII cells = GCS in WT-MDCKII cells (Canis lupus familiaris, UniProt A0A8I3MXG6); test: Inhibition of GlcCer production in whole wild-type MDCKII cells; assay type: cell-based, canine; details: 24 hours, read-out: WT-MDCK IC50
GCS in WT-MDCKII cells, sequence (A0A8I3MXG6 1-394): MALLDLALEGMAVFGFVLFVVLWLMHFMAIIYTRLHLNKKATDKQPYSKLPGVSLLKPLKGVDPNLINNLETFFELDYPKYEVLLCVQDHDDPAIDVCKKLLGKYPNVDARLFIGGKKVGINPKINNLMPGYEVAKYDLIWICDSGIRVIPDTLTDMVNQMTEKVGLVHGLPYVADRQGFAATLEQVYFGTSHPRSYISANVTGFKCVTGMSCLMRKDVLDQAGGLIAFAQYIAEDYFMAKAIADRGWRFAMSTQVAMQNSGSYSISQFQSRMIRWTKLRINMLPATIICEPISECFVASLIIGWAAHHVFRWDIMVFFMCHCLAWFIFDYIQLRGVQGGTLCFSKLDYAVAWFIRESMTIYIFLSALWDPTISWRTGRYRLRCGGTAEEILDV
Experimental: (§1) Parental (WT-)MDCKII cells and MDCKII cells retrovirally transduced with human MDR-1 cDNA were obtained from the Netherlands Cancer Institute. Both cell lines were routinely maintained in medium consisting of Opti-MEM/F12 (1:1), 5% FBS, 100 U/mL of penicillin, 100 μg/mL streptomycin and […] L-glutamine. MDCKII cells were newly thawed from frozen ampules every two months.
(§2) Stock solutions of water-insoluble glycosphingolipid inhibitors (100 mM) were prepared by dissolving each inhibitor into 100% ethanol as previously described (3). The inhibitor-ethanol solutions then were diluted 50× into 2 mM delipidated bovine serum albumin-phosphate buffered saline solution to make water-soluble glycosphingolipid inhibitor-bovine serum albumin complexes. The inhibitor-bovine serum album complexes were sterile-filtered and stored at −20° C. Prior to use, portions of the inhibitor-bovine serum albumin complexes were further diluted with Opti-F12 to make treatment solutions. Equal amounts of bovine serum albumin and ethanol were added into the control cultures. WT and MDR1-MDCKII cells (5×10^5) were seeded into 10-cm culture dishes containing 10 ml of Opti-F12 with 5% FBS.
(§3) Following inhibitor treatment, whole cellular lipids of wild type and MDR1-MDCKII cells were extracted as previously described in detail (10). Briefly, cells were washed with ice-cold phosphate buffered saline, fixed by methanol, and collected with rubber scraper. Chloroform was then added to yield a theoretical ratio of chloroform:methanol:water at 1:2:0.8 (v/v/v) to form a mono-phase. Cell debris and proteins were removed by centrifugation at 2200×g for 30 min. The supernatants were portioned by adding chloroform and 0.9% NaCl. The lower organic phases containing neutral glycosphingolipids lipids were washed with methanol and 0.9% NaCl, and subjected to base- and acid-hydrolysis (10). A portion of purified glycosphingolipids normalized to 100 nmol of total phospholipids was analyzed by high performance thin layer chromatography. The thin layer chromatography separations were processed twice. The plate pretreated with 1% sodium borate was first developed in a solvent system consisting of chloroform/methanol (98/2, v/v). After air drying, the plate was then developed in a solvent system containing chloroform/methanol/water (70/30/4, v/v/v). The levels of glucosylceramide were detected by charring with 8% cupric sulfate in 8% phosphoric acid, and quantified by densitometric scanning using ImageJ, NIH Image.

[2] = target: glucosylceramide synthase (GCS) (Canis lupus familiaris, UniProt A0A8I3MXG6); test: GCS activity, broken cell assay (inhibition of GlcCer synthesis in broken wild-type MDCK cell preparations); assay type: biochemical, canine; details: mean of n > 2 experiments
glucosylceramide synthase (GCS), sequence (A0A8I3MXG6 1-394): as above
Experimental: Enzyme activity was measured as described previously (9). Madin-Darby canine kidney (MDCK) cell homogenates (120 μg of protein) were incubated with uridine diphosphate-[^3H]glucose (100,000 cpm) and liposomes consisting of 85 μg of octanoylsphingosine, 570 μg of dioleoylphosphatidylcholine, and 100 μg of sodium sulfatide in a 200 μL reaction mixture and kept for 1 h at 37° C.

GCS in MDR1-MDCKII cells = GCS in MDR1-MDCKII cells (Canis lupus familiaris, UniProt A0A8I3MXG6); details: read-out: MDR1-MDCKII IC50; MDCKII cells stably expressing human MDR1, 24 hours
GCS in MDR1-MDCKII cells, sequence (A0A8I3MXG6 1-394): as above
Experimental: as §1, §2, §3

[3] = tested on: brain glucosylceramide (GlcCer); test: Brain glucosylceramide (GlcCer) content in WT mice; assay type: in vivo, mouse; details: for reduction of brain GlcCer levels / reduction in brain GlcCer levels: WT mice
Experimental: Lipid extractions of liver, kidney, and brain were performed as previously described (7). Briefly, frozen liver (about 0.5 g), two kidneys (about 0.3 g) and whole brain (about 0.4 g) were individually homogenized in sucrose buffer (250 mM sucrose, pH 7.4, 10 mM HEPES and 1 mM EDTA), at 0.2 g tissue/1 mL of sucrose buffer, with a Tri-R homogenizer. Each 0.8 mL of homogenate was mixed with 2 mL of methanol and 1 mL of chloroform, bath sonicated for 1 min and incubated at room temperature for 1 h. Tissue debris were removed by centrifugation at 2,400× gravity for 30 min. The pellets were re-extracted by mixing with 1 mL of methanol, 0.5 mL of chloroform and 0.4 mL of 0.9% NaCl (chloroform/methanol/0.9% NaCl, 1:2:0.8), incubated at room temperature for 1 h and centrifuged at 2,400× gravity for another 30 min. Two extracts were combined and mixed with 4.5 mL of chloroform and 1.2 mL of 0.9% NaCl (chloroform/methanol/0.9% NaCl, 2:1:0.8). After centrifugation at 800× gravity for 5 min, lower layer was washed with 3 mL of methanol and 2.4 mL of 0.9% NaCl. Second washing was carried with 3 mL of methanol, 2 mL of water and 0.4 mL of 0.9% NaCl followed by a 5 min centrifugation at 800× gravity. The resultant lower phase was collected and dried under a stream of N2 gas.
The analysis of neutral glycosphingolipids from mouse liver, kidney, and brain was processed after alkaline methanolysis. […] lipids were incubated with 2 mL of chloroform and 1 ml of 0.21N NaOH in methanol for 2 h (kidney) or 7.5 h (liver and brain) at RT. The lipid extract was normalized to 0.5 μmol of total phospholipid phosphate (liver and kidney) or 2 μmol of total phospholipid phosphate (brain) for high performance thin layer chromatography analysis. After alkaline methanolysis, the brain lipids were passed through a silica gel column (7). Borate-impregnated thin layer chromatography plates were developed in a two solvent system. Plates were first developed in chloroform/methanol (98:2, v/v). The plates loaded with kidney and liver lipids were then developed in chloroform/methanol/water (64:24:4, v/v/v), and brain lipids were further separated in chloroform/methanol/water (60:30:6, v/v/v). GlcCer levels were quantified by comparison to known standards.
In another test, a dose ranging study for brain glucosylceramide (GlcCer) content was performed using the compound of Example 7. FIG. 1 contains bar graphs showing the GluCer levels in treated and untreated WT mouse brain at low doses for 3 days (FIG. 1A) and high doses for 3 days (FIG. 1B). […] FIG. 1C compares the GlcCer levels in treated and untreated WT mouse brain for 7 days comparing oral gavage vs. IP injection. […] FIG. 2 contains comparative brain GlcCer level data obtained with the Control Compound, dosed at 10 mg/kg IP (FIG. 2A) or 60 mg/kg IP (FIG. 2B) in WT mice for 3 days.

[4] = Brain and plasma drug levels after single oral dose in CD-1 mice; assay type: in vivo, mouse
[5] = mouse, brain, single 20 mg/kg PO, female CD-1 mice, read-out: Drug level in brain
[6] = mouse, plasma, single 20 mg/kg PO, female CD-1 mice, read-out: Drug level in plasma
[7] = mouse, plasma, single 20 mg/kg PO, female CD-1 mice, 7 hrs, read-out: Drug level in plasma

SMILES: COc1ccc([C@@H](O)[C@@H](CN2CCCC2)NC(=O)CC2Cc3ccccc3C2)cc1 [Example 2, 2-(2,3-dihydro-1H-inden-2-yl)-N-((1R,2R)-1-hydroxy-1-(4-methoxyphenyl)-3-(pyrrolidin-1-yl)propan-2-yl)acetamide]
- half-life [1]: 5.5 min

SMILES: COc1cccc([C@@H](O)[C@@H](CN2CCCC2)NC(=O)CC2Cc3ccccc3C2)c1 [Example 3, 2-(2,3-dihydro-1H-inden-2-yl)-N-((1R,2R)-1-hydroxy-1-(3-methoxyphenyl)-3-(pyrrolidin-1-yl)propan-2-yl)acetamide]
- half-life [1]: 4 min

SMILES: O=C(CC1Cc2ccccc2C1)N[C@H](CN1CCCC1)[C@H](O)c1ccc(OCC2CC2)cc1 [Example 11, N-((1R,2R)-1-(4-(cyclopropylmethoxy)phenyl)-1-hydroxy-3-(pyrrolidin-1-yl)propan-2-yl)-2-(2,3-dihydro-1H-inden-2-yl)acetamide]
- IC50 (GCS in WT-MDCKII cells): 0.001 µM
- IC50 [2]: 0.046 µM
- IC50 (GCS in MDR1-MDCKII cells): 0.00084 µM

SMILES: O=C(CC1Cc2ccccc2C1)N[C@H](CN1CC[C@@H](F)C1)[C@H](O)c1ccc(OC(F)(F)F)cc1 [Example 16, 2-(2,3-dihydro-1H-inden-2-yl)-N-((1R,2R)-3-((R)-3-fluoropyrrolidin-1-yl)-1-hydroxy-1-(4-(trifluoromethoxy)phenyl)propan-2-yl)acetamide]
- IC50 (GCS in WT-MDCKII cells): 0.023 µM
- IC50 [2]: > 0.3 µM
- IC50 (GCS in MDR1-MDCKII cells): 0.047 µM

SMILES: COc1ccccc1[C@@H](O)[C@@H](CN1CCCC1)NC(=O)CC1Cc2ccccc2C1 [Example 4, 2-(2,3-dihydro-1H-inden-2-yl)-N-((1R,2R)-1-hydroxy-1-(2-methoxyphenyl)-3-(pyrrolidin-1-yl)propan-2-yl)acetamide]
- IC50 (GCS in WT-MDCKII cells): 0.005 µM
- IC50 [2]: 0.044 µM
- IC50 (GCS in MDR1-MDCKII cells): 0.056 µM

SMILES: O=C(CC1Cc2ccccc2C1)N[C@H](CN1CCCC1)[C@H](O)c1ccc2c(c1)OCCO2 [control]
- IC50 (GCS in WT-MDCKII cells): 0.015 µM
- half-life [1]: 1.5 min
- reduction of brain GlcCer levels ([3]; 60 mg/kg IP, 3 days): 17%
- Kp at 1 h ([4]; female, mouse, brain/plasma, 20 mg/kg, single oral dose, CD-1 mice, at one hour, read-out: brain/plasma ratio): 0.25
- concentration at 1 h [4, 5]: 5 ng/g
- concentration at 1 h [4, 6]: 20 ng/g
- concentration at 7 h [4, 7]: 9 ng/g
- Drug level in brain ([4]; single 20 mg/kg PO, female CD-1 mice, 7 hrs): BLQ*
- IC50 (GCS in MDR1-MDCKII cells): 0.024 µM

SMILES: O=C(CC1Cc2ccccc2C1)N[C@H](CN1CCCC1)[C@H](O)c1cccc(OC(F)(F)F)c1 [Example 14, 2-(2,3-dihydro-1H-inden-2-yl)-N-((1R,2R)-1-hydroxy-3-(pyrrolidin-1-yl)-1-(3-(trifluoromethoxy)phenyl)propan-2-yl)acetamide]
- IC50 (GCS in WT-MDCKII cells): 0.05 µM

SMILES: COc1ccc([C@@H](O)[C@@H](CN2CCCC2)NC(=O)CC2Cc3ccccc3C2)cc1F [Example 1, 2-(2,3-dihydro-1H-inden-2-yl)-N-((1R,2R)-1-(3-fluoro-4-methoxyphenyl)-1-hydroxy-3-(pyrrolidin-1-yl)propan-2-yl)acetamide]
- half-life [1]: 2.7 min

SMILES: O=C(CC1Cc2ccccc2C1)N[C@H](CN1CCCC1)[C@H](O)c1ccc(OCC(F)(F)F)cc1 [Example 12, 2-(2,3-dihydro-1H-inden-2-yl)-N-((1R,2R)-1-hydroxy-3-(pyrrolidin-1-yl)-1-(4-(2,2,2-trifluoroethoxy)phenyl)propan-2-yl)acetamide]
- half-life [1]: 11 min

SMILES: CCCCCCCC(=O)N[C@H](CN1CCCC1)[C@H](O)c1ccc2c(c1)OCCO2 [eliglustat tartrate, N-((1R,2R)-1-(2,3-dihydrobenzo-[b][1,4]dioxin-6-yl)-1-hydroxy-3-(pyrrolidin-1-yl)propan-2-yl)octanamide, reference compound]
- decrease in brain glucosylceramide content ([3]; mice, intraperitoneal administration for 3 days): not seen

SMILES: O=C(CC1Cc2ccccc2C1)N[C@H](CN1CCC1)[C@H](O)c1ccc(OC(F)(F)F)cc1 [Example 17, N-((1R,2R)-3-(azetidin-1-yl)-1-hydroxy-1-(4-(trifluoromethoxy)phenyl)propan-2-yl)-2-(2,3-dihydro-1H-inden-2-yl)acetamide]
- half-life [1]: > 60 min

SMILES: O=C(CC1Cc2ccccc2C1)N[C@H](CN1CCCC1)[C@H](O)c1ccc(OC(F)(F)F)cc1 [Example 7, 2-(2,3-dihydro-1H-inden-2-yl)-N-((1R,2R)-1-hydroxy-3-(pyrrolidin-1-yl)-1-(4-(trifluoromethoxy)phenyl)propan-2-yl)acetamide]
- half-life [1]: 37 min
- reduction in brain GlcCer levels ([3]; 1 mg/kg IP, 3 days): Near maximal reduction
- reduction of brain GlcCer levels ([3]; 1 mg/kg IP, 3 days): 35%
- reduction in brain GlcCer levels ([3]; oral dosing at 10 mg/kg, 7 days): significant reductions
- concentration at 1 h [4, 5]: 193 ng/g
- concentration at 7 h ([4]; mouse, brain, single 20 mg/kg PO, female CD-1 mice, 7 hrs, read-out: Drug level in brain): 68 ng/g
- concentration at 1 h [4, 6]: 463 ng/g
- concentration at 7 h [4, 7]: 52 ng/g
